How the values were obtained:
[1] = for mass density / viscosity: 101.33 kPa, Liquid; for mass density: Vibrating tube method
[2] = molar heat capacity at constant pressure; settings: 101.33 kPa, Liquid, Small sample (50 mg) DSC

CCCCCCCC[n+]1ccc2ccccc2c1.N#C[S-] [2-octylisoquinolinium thiocyanate]
Settings | mass density, [1] [kg/m3] | molar heat capacity at constant pressure, [2] [J/K/mol] | viscosity, [1] [mPa·s]
278.15 K | – | 510 | –
283.15 K | – | 513 | –
288.15 K | 1067.27 | 516 | –
293.15 K | 1064.44 | 519 | –
298.15 K | 1061.69 | 522 | 2388
303.15 K | 1058.82 | 525 | 1612.1
308.15 K | 1055.96 | 528 | 1109.5
313.15 K | 1053.11 | 531 | 743.87
318.15 K | 1050.26 | 533 | 513.78
323.15 K | 1047.42 | 535 | 365.48
328.15 K | 1044.57 | 537 | 266.77
333.15 K | 1041.72 | 538 | 199.26
338.15 K | 1038.94 | 540 | 152.21
343.15 K | 1036.2 | 540 | 118.51
348.15 K | 1033.47 | – | 93.83

Settings | Glass transition temperature [°C]
[1], Glass, DTA | -57.0
